{"source": "patent US20090215732A1", "about": "“COMBINATION OF COMPOUNDS, WHICH CAN BE USED IN THE TREATMENT OF RESPIRATORY DISEASES, ESPECIALLY CHRONIC OBSTRUCTIVE PULMONARY DISEASE (COPD) AND ASTHMA” (priority 2005, published 2009)", "assay": "Estimated solubility of the salt in organic solvents", "assay_type": "physicochemical", "description": "(b) The Form B salt described in (a) above was also prepared by dissolving, in a vial, 20% w of a sample of the benzoate salt prepared by the method of Example 1(b) (Form A) in a solvent such as methanol (>20 mg/ml), ethanol (>20 mg/ml), n-propanol (>20 mg/ml), isopropanol (8.5 mg/ml) or acetone (9.6 mg/ml). The figures in brackets indicate the estimated solubility of the salt in these solvents. The vial was then sealed and the suspension was homogenised at ambient temperature (20° C.) using a magnet. Stirring and temperature were maintained for a period of at least 7 days after which time a sample of the material obtained was dried and tested by XRPD. XRPD confirmed that there had been complete transformation of Form A to Form B.\n(a) Form B was prepared by dissolving, in a vial, 20% w of a sample of the furoate salt prepared by the method of Example 1(b) (Form A) in a solvent such as ethanol (16 mg/ml) or 2-butanol (8 mg/ml). The figures in brackets indicate the estimated solubility of the salt in these solvents. The vial was then sealed and the suspension was homogenised at ambient temperature (20° C.) using a magnet. Stirring and temperature were maintained for a period of at least 7 days after which time a sample of the material obtained was dried and tested by XRPD. XRPD confirmed that there had been complete transformation of Form A to Form B.", "data": [{"smiles": "CC(=O)Nc1ccc(O)cc1OC[C@@](C)(O)CNC1CCN(Cc2ccc(Cl)cc2)CC1.O=C(O)c1ccccc1", "note": "[Example 1(b), N-{2-[((2S)-3-{[1-(4-chlorobenzyl)piperidin-4-yl]amino}-2-hydroxy-2-methylpropyl)oxy]-4-hydroxyphenyl}acetamide benzoate (1:1 salt), Form A]", "values": [{"measurement": "estimated solubility of the salt", "setting": "solvent acetone", "result": 9.6, "unit": "mg/mL"}, {"measurement": "estimated solubility of the salt", "setting": "solvent ethanol", "result": "> 20", "unit": "mg/mL"}, {"measurement": "estimated solubility of the salt", "setting": "solvent isopropanol", "result": 8.5, "unit": "mg/mL"}, {"measurement": "estimated solubility of the salt", "setting": "solvent methanol", "result": "> 20", "unit": "mg/mL"}, {"measurement": "estimated solubility of the salt", "setting": "solvent n-propanol", "result": "> 20", "unit": "mg/mL"}]}, {"smiles": "CC(=O)Nc1ccc(O)cc1OC[C@@](C)(O)CNC1CCN(Cc2ccc(Cl)cc2)CC1.O=C(O)c1ccco1", "note": "[Example 1(c), N-{2-[((2S)-3-{[1-(4-chlorobenzyl)piperidin-4-yl]amino}-2-hydroxy-2-methylpropyl)oxy]-4-hydroxyphenyl}acetamide furoate (1:1 salt), Form A]", "values": [{"measurement": "estimated solubility of the salt", "setting": "solvent 2-butanol", "result": 8, "unit": "mg/mL"}, {"measurement": "estimated solubility of the salt", "setting": "solvent ethanol", "result": 16, "unit": "mg/mL"}]}]}
